Reference: ChEMBL document CHEMBL1135204, “Synthesis and muscarinic M2 subtype antagonistic activity of unnatural ent-himbacine and an enantiomeric pair of (2'S,6'R)-diepihimbacine” (Bioorg Med Chem Lett, 2002)

Tests used:
[1] = target: T1, Muscarinic acetylcholine receptor M2 (Rattus norvegicus, UniProt P10980); assay: Binding affinity against the muscarinic M2 (brainstem) subtype was evaluated using [3H]quinuclidinyl benzilate; assay type: tissue-based
T1 sequence (P10980 whole entry): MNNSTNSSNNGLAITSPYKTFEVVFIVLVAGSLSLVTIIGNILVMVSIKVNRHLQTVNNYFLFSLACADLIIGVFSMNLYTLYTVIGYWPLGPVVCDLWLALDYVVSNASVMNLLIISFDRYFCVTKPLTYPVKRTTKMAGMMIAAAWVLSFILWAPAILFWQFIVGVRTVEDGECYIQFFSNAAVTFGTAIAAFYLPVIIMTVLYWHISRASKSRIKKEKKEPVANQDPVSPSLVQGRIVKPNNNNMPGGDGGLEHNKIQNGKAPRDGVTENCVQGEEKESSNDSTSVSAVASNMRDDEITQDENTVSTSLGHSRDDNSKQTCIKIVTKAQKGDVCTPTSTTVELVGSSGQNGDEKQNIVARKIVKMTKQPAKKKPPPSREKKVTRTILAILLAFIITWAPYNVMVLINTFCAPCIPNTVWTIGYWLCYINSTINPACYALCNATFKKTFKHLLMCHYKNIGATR

[2] = target: T2, Muscarinic acetylcholine receptor M1 (Rattus norvegicus, UniProt P08482); assay: Binding affinity against the muscarinic M1 (cortex) subtype was evaluated using [3H]pirenzepine
T2 sequence (P08482 whole entry): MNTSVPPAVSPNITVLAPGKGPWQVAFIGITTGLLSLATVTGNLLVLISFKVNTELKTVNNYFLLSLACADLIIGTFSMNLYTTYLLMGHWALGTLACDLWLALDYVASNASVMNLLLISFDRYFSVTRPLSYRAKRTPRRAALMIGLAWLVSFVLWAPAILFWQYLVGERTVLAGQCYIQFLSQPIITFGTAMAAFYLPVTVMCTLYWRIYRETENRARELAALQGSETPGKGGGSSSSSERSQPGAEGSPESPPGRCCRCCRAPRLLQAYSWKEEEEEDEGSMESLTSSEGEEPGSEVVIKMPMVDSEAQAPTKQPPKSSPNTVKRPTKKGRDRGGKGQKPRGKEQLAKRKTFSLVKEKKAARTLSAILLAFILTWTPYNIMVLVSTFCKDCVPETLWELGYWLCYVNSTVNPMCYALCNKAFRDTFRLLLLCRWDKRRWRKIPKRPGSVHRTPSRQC

| SMILES | Ki [1] | Ki [2] |
| --- | --- | --- |
| C[C@@H]1OC(=O)[C@H]2C[C@H]3CCCC[C@@H]3[C@@H](/C=C/[C@H]3CCC[C@H](C)N3C)[C@@H]12 [HIMBACINE] | 10 nM | 63.1 nM |
| C[C@@H]1CCC[C@@H](/C=C/[C@H]2[C@@H]3CCCC[C@H]3C[C@H]3C(=O)O[C@H](C)[C@@H]23)N1C (single isomer, unassigned; ent-1) | 794 nM | 1000 nM |
| C[C@@H]1OC(=O)[C@H]2C[C@H]3CCCC[C@@H]3[C@@H](/C=C/[C@@H]3CCC[C@@H](C)N3C)[C@@H]12 | 200 nM | 316 nM |
| C[C@H]1OC(=O)[C@@H]2C[C@@H]3CCCC[C@H]3[C@H](/C=C/[C@H]3CCC[C@H](C)N3C)[C@H]12 | 200 nM | 316 nM |
